Results: patent US20080311126A1, “Antisense Oligonucleotides Directed to Ribonucleotide Reducatase R2 and Uses Thereof in Combination Therapies for the Treatment of Cancer” (Genesense Technologies, Inc, priority 2004, published 2008)
Oligonucleotides are written 5' to 3', each unit as a sugar letter and its base; * is a phosphorothioate linkage, no mark a phosphodiester; rarer units and linkages stand in square brackets, end groups in braces. Plain capitals give the bases only. d = 2'-deoxy (DNA)

Experiments:
Type in all cases: cell-based, human
Hela S3 cells = test: Relative colony forming efficiency, lipofectin +/- oligonucleotide 4 hours; conditions: Hela S3 cervix carcinoma cells; averages of 2-8 determinations
Method: Colony forming efficiency was determined using standard protocols. Briefly, the cells were cultured for 24 hours at 37° C. in growth medium with 10% fetal bovine serum. The cells were washed in 5 ml phosphate buffered saline, pH 7.2, once prior to lipofectin +/−oligonucleotide treatment.
The test oligonucleotides were added to cell cultures in the presence of 2.5 μg of DOTMA/DOPE (Lipofectin; Life Technologies, Inc.) for four hours. The oligonucleotide was tested at 0.2 μM unless otherwise indicated. Controls were the cultures treated with lipofectin but without the oligonucleotide. After 4 hours the medium containing the oligonucleotide was removed and washed with 5 ml of growth medium. The cells were then cultured in growth medium containing 10% fetal bovine serum for seven to ten days. Surviving cells were visualized by methylene blue staining, and colonies were scored. In some experiments cell aliquots were removed from the culture and viability was determined using the trypan blue exclusion test. Results were analyzed as percent of surviving cells compared to control cells.
AS-II-336-20 was tested for the ability to inhibit the proliferation of human tumour cells (Hela). Hela S3 cells (American Type Culture Collection, Rockville, Md., ATCC), and a Hela cell line (Hela 1 mM) previously selected for resistance to the antitumour agent, hydroxyurea, were tested (see results in Table 11). Two experiments were undertaken with Hela S3 cells. […] The same experiment was repeated with the Hela 1 mM cell line and with varying concentrations of the antisense construct AS-II-336-20 (see results in Table 11) with similar results, […] was an effective concentration for inhibiting colony formation.
To test the antisense effects of many of these sequences as phosphorthioate deoxyribonucleotides, they were examined in relative colony forming experiments conducted as described in Example 16 with a series of human tumour cell lines. The results (shown as % inhibition of colony forming ability) obtained with cancer cells derived from the bladder, breast, lung, colon, pancreas, prostate, liver and cervix, are shown in Table 13. The specific cell lines employed are as follows:
T24=bladder cell carcinoma HCT116=colon cell carcinoma A549=lung cell carcinoma MDA-MB-231=breast cell adenocarcinoma […]=pancreatic cell carcinoma PC-3=prostrate cell adenocarcinoma HepG2=hepatocellular carcinoma HeLaS3=cells isolated from a carcinoma of the cervix T-47D=breast ductal carcinoma H596=lung adenosquamous carcinoma cells Colo320=colon cell adenocarcinoma

[1] = system: T24 bladder cell carcinoma; test: Relative colony forming efficiency (Example 17, Table 13); conditions: averages of 2-8 determinations
Summary of the method: (§1)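 Phosphorothioate antisense oligodeoxynucleotides, at 0.2 μM unless otherwise indicated, were applied with 2.5 μg DOTMA/DOPE (Lipofectin) for 4 h. Colonies stained with methylene blue and scored, with viability sometimes checked by trypan blue exclusion. Values given as % inhibition of colony formation relative to lipofectin-only controls.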

A549 lung cell carcinoma = test: as above; conditions: averages of 2-8 determinations
Summary of the method: as §1

[2] = system: MDA PaCa-2 pancreatic cell carcinoma; test: as above; conditions: MIA PaCa-2 pancreatic cell carcinoma; averages of 2-8 determinations
Summary of the method: as §1

[3] = system: HCT116 colon cell carcinoma; test: as above; conditions: averages of 2-8 determinations
Summary of the method: as §1

[4] = system: PC-3 prostrate cell adenocarcinoma; test: as above; conditions: averages of 2-8 determinations
Summary of the method: as §1

[5] = system: MDA-MB-231 breast cell adenocarcinoma; test: as above; conditions: averages of 2-8 determinations
Summary of the method: as §1

[6] = system: HepG2 hepatocellular carcinoma; test: as above; conditions: averages of 2-8 determinations
Summary of the method: as §1

Sequence	Reduced relative colony forming efficiency, Hela S3 (% inhibition of colony forming ability) (Hela S3 cells) [%]	Reduced relative colony forming efficiency, T24 (% inhibition of colony forming ability) [1] [%]	Reduced relative colony forming efficiency, A549 (% inhibition of colony forming ability) (A549 lung cell carcinoma) [%]	Reduced relative colony forming efficiency, MIA PaCa-2 (% inhibition of colony forming ability) [2] [%]	Reduced relative colony forming efficiency, HCT116 (% inhibition of colony forming ability) [3] [%]	Reduced relative colony forming efficiency, PC-3 (% inhibition of colony forming ability) [4] [%]	Reduced relative colony forming efficiency, MDA-MB-231 (% inhibition of colony forming ability) [5] [%]	Reduced relative colony forming efficiency, HepG2 (% inhibition of colony forming ability) [6] [%]
ACCCCTCACTCCAGCAGCCT (antisense dA*dC*dC*dC*dC*dT*dC*dA*dC*dT*dC*dC*dA*dG*dC*dA*dG*dC*dC*dT) [AS-II-110-20]	53.98	87.78	89.38	47.51	71.69	92.06	90.92	97.14
CGGCGGCGTGTTCTCCTTGT (antisense dC*dG*dG*dC*dG*dG*dC*dG*dT*dG*dT*dT*dC*dT*dC*dC*dT*dT*dG*dT) [AS-II-280-20]	41.79	90.56	61.81	53.94	69.42	77.51	79.14	97.14
TATCTCTCCTCGGGTTTCAG (antisense dT*dA*dT*dC*dT*dC*dT*dC*dC*dT*dC*dG*dG*dG*dT*dT*dT*dC*dA*dG) [AS-II-549-20]	27.8	45.46	30.57	17.01	47.83	–	40.13	84.04
CTGCTTTAGTTTTCGGCTCC (antisense dC*dT*dG*dC*dT*dT*dT*dA*dG*dT*dT*dT*dT*dC*dG*dG*dC*dT*dC*dC) [AS-II-362-20]	45.69	89.63	61.81	34.2	62.81	75.78	85.83	95.78
GGCATCAGTCCTCGTTTCTT (antisense dG*dG*dC*dA*dT*dC*dA*dG*dT*dC*dC*dT*dC*dG*dT*dT*dT*dC*dT*dT) [AS-II-933-20]	26.86	64.84	53.52	35.68	67.24	36.91	64.39	–
TCAGAGGGGGCAGAGAATCC (antisense dT*dC*dA*dG*dA*dG*dG*dG*dG*dG*dC*dA*dG*dA*dG*dA*dA*dT*dC*dC) [AS-II-2044-20]	24.55	53.63	25.55	24.48	49.34	74.48	19.11	62.35
CCTCCTCGGCGGTCCAAAAG (antisense dC*dC*dT*dC*dC*dT*dC*dG*dG*dC*dG*dG*dT*dC*dC*dA*dA*dA*dA*dG) [AS-II-494-20]	43.62	54.23	33.85	25.31	50.28	30.6	54.78	93.37
TGTAAACCCTCATCTCTGCT (antisense dT*dG*dT*dA*dA*dA*dC*dC*dC*dT*dC*dA*dT*dC*dT*dC*dT*dG*dC*dT) [AS-II-981-20]	69.43	86.3	74.25	–	66.84	85.16	91.48	95.03
TCCTTTATCCCACAACACTC (antisense dT*dC*dC*dT*dT*dT*dA*dT*dC*dC*dC*dA*dC*dA*dA*dC*dA*dC*dT*dC) [AS-II-2067-20]	24.88	49.6	64.71	41.08	47.16	–	49.68	90.36
GGAAGATGACAAAGCGGCGG (antisense dG*dG*dA*dA*dG*dA*dT*dG*dA*dC*dA*dA*dA*dG*dC*dG*dG*dC*dG*dG) [AS-II-425-20]	63.09	90.37	57.38	65.2	–	75.65	89.75	97.89
TCTGCCTTCTTCTTGACACA (antisense dT*dC*dT*dG*dC*dC*dT*dT*dC*dT*dT*dC*dT*dT*dG*dA*dC*dA*dC*dA) [AS-II-798-20]	56.42	84.72	70.49	34.65	64.46	83.21	83.92	89.46
GGTTTTCTCTCAGCAGCGGC (antisense dG*dG*dT*dT*dT*dT*dC*dT*dC*dT*dC*dA*dG*dC*dA*dG*dC*dG*dG*dC) [AS-II-404-20]	58.37	84.26	52.17	17.84	–	77.08	85.83	84.79
